Tests used:
[1] = biological target: Human CB1 Receptor-1b (hCB1b) (Homo sapiens (Human), UniProt P21554); assay: hCB1b Gai cyclic AMP (cAMP) TR-FRET assay, antagonism of EC80 CP55940 with forskolin; format: cell-based; settings: hCB1b cells, 30 min pre-incubation, read-out: CB1b IC50
Protocol: (§1) Example 3. Biochemical Methods Human CB1 Receptor-1 (hCB1) and Human CB1 Receptor-1b (hCBib)
(§2) hCB1/hCB1 b Gai Cyclic AMP (cAMP) Assays: Cells were seeded in a 384-well plate at an appropriate density from frozen cells. The cAMP assays were performed according to the manufacturer's protocol using MULTISCREEN™ TR-FRET cAMP 1.0 No Wash Assay Kit. Cells (hCB1 or hCB1 b) were pre-incubated with customer compounds for 30 minutes at rt followed by addition of EC80 CP55940 concentration and Forskolin. Cells were then incubated for 20 minutes at 37C. The reaction was terminated by sequentially adding sequentially adding MULTISCREEN™ Eu-labeled cAMP and MULTISCREEN™ 650-labeled anti-cAMP antibody in lysis buffer. The plate was then incubated at rt for 30 minutes before reading fluorescent emissions at 620 nm and 665 with excitation at 314 nm on FlexStation III (Molecular Devices). The results are shown in Table 2 (“***” denotes an IC50<100 nM; “**” denotes an IC50 between 100 nM and 500 nM, and “*” denotes an IC50>500 nM).

[2] = biological target: Human CB1 Receptor-1 (hCB1) (Homo sapiens (Human), UniProt P21554); assay: hCB1 Gai cyclic AMP (cAMP) TR-FRET assay, antagonism of EC80 CP55940 with forskolin; format: cell-based; settings: hCB1 cells, 30 min pre-incubation
Human CB1 Receptor-1 (hCB1), sequence (P21554 whole entry): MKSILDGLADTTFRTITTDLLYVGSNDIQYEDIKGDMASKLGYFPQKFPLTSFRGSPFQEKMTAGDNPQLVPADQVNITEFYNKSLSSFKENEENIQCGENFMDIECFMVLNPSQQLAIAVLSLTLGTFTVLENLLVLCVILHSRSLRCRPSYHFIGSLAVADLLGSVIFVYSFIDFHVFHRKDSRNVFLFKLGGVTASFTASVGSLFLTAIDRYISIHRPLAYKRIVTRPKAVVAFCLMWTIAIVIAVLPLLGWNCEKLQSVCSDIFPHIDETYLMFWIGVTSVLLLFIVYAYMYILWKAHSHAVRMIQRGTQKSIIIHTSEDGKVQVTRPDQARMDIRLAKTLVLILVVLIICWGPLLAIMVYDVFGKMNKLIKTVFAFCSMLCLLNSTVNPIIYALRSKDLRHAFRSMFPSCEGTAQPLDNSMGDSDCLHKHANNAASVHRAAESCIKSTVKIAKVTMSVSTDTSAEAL
Protocol: as §1, §2

Human CB1 Receptor-1b (hCB1b), sequence (P21554 other isoform, or with tags, fused parts or gaps): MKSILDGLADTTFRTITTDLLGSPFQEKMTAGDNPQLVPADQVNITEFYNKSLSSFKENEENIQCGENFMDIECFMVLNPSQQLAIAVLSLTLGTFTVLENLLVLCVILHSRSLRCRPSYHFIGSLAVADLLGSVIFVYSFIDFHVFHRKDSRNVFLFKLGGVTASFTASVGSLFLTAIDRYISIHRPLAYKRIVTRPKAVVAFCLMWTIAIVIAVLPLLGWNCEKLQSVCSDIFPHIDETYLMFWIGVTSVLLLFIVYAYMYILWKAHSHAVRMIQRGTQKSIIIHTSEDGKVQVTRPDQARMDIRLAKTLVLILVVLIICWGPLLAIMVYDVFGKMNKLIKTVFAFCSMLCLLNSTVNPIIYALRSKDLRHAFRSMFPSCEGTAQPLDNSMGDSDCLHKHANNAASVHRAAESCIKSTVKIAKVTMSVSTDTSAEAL

| SMILES | IC50 [1] [nM] | IC50 [2] [nM] |
| --- | --- | --- |
| NS(=O)(=O)C1CCN(/C(=N/S(=O)(=O)c2ccc(Cl)cc2)N2C[C@H](c3ccccc3)C(c3ccc(Cl)cc3)=N2)CC1 [Compound 113, (S,Z)-1-((3-(4-chlorophenyl)-4-phenyl-4,5-dihydro-1H-pyrazol-1-yl)(((4-chlorophenyl)sulfonyl)imino)methyl)piperidine-4-sulfonamide] | > 500 | > 500 |
| NS(=O)(=O)CCNC(=NS(=O)(=O)c1ccccc1Cl)N1C[C@H](c2ccccc2)C(c2ccc(Cl)cc2)=N1 [Compound 29, (S)-3-(4-chlorophenyl)-N′-((2-chlorophenyl)sulfonyl)-4-phenyl-N-(2-sulfamoylethyl)-4,5-dihydro-1H-pyrazole-1-carboximidamide] | < 100 | < 100 |
| C#Cc1ccc(S(=O)(=O)N=C(NCCS(N)(=O)=O)N2C[C@H](c3ccccc3)C(c3ccc(Cl)cc3)=N2)cc1 [Compound 21, (S)-3-(4-chlorophenyl)-N′-((4-ethynylphenyl)sulfonyl)-4-phenyl-N-(2-sulfamoylethyl)-4,5-dihydro-1H-pyrazole-1-carboximidamide] | < 100 | < 100 |
| NS(=O)(=O)[C@H]1CC[C@H](N/C(=N/S(=O)(=O)c2ccc(Cl)cc2)N2C[C@@H](c3ccccc3)C(c3ccc(Cl)cc3)=N2)CC1 (single isomer, unassigned) [Compound 122] | 100 to 500 | 100 to 500 |
| NS(=O)(=O)CCNC(=NS(=O)(=O)c1cccc(Cl)c1)N1C[C@H](c2ccccc2)C(c2ccc(Cl)cc2)=N1 [Compound 31, (S)-3-(4-chlorophenyl)-N′-((3-chlorophenyl)sulfonyl)-4-phenyl-N-(2-sulfamoylethyl)-4,5-dihydro-1H-pyrazole-1-carboximidamide] | < 100 | < 100 |
| NS(=O)(=O)C1CCN(/C(=N/S(=O)(=O)c2ccc(Cl)cc2)N2C[C@H](c3ccccc3)C(c3ccc(F)cc3)=N2)CC1 [Compound 111, (S,Z)-1-((((4-chlorophenyl)sulfonyl)imino)(3-(4-fluorophenyl)-4-phenyl-4,5-dihydro-1H-pyrazol-1-yl)methyl)piperidine-4-sulfonamide] | > 500 | > 500 |
| NS(=O)(=O)N[C@H]1C[C@H](N/C(=N\S(=O)(=O)c2ccc(Cl)cc2)N2C[C@H](c3ccccc3)C(c3ccc(Cl)cc3)=N2)C1 (single isomer, unassigned) [Compound 241] | < 100 | 100 to 500 |
| CN(C)S(=O)(=O)CCN/C(=N\S(=O)(=O)c1ccc(F)cc1)N1C[C@H](c2ccccc2)C(c2ccc(F)cc2)=N1 [Compound 167, (S,E)-N-(2-(N,N-dimethylsulfamoyl)ethyl)-3-(4-fluorophenyl)-N′-((4-fluorophenyl)sulfonyl)-4-phenyl-4,5-dihydro-1H-pyrazole-1-carboximidamide] | < 100 | < 100 |
| NS(=O)(=O)[C@H]1CC[C@@H](N/C(=N/S(=O)(=O)c2ccc(Cl)cc2)N2C[C@H](c3ccccc3)C(c3ccc(F)cc3)=N2)C1 [Compound 147, (S,Z)-N′-((4-chlorophenyl)sulfonyl)-3-(4-fluorophenyl)-4-phenyl-N-((1R,3S)-3-sulfamoylcyclopentyl)-4,5-dihydro-1H-pyrazole-1-carboximidamide] | 100 to 500 | 100 to 500 |
| CN1CCN(S(=O)(=O)CCN/C(=N\S(=O)(=O)c2ccc(F)cc2)N2C[C@H](c3ccccc3)C(c3ccc(F)cc3)=N2)CC1 [Compound 165, (S,E)-3-(4-fluorophenyl)-N′-((4-fluorophenyl)sulfonyl)-N-(2-((4-methylpiperazin-1-yl)sulfonyl)ethyl)-4-phenyl-4,5-dihydro-1H-pyrazole-1-carboximidamide] | 100 to 500 | < 100 |
| NS(=O)(=O)CCN/C(=N\S(=O)(=O)c1ccc(C(F)(F)F)cc1)N1C[C@H](c2ccccc2)C(c2ccc(F)cc2)=N1 [Compound 43, (S,E)-3-(4-fluorophenyl)-4-phenyl-N-(2-sulfamoylethyl)-N′-((4-(trifluoromethyl)phenyl)sulfonyl)-4,5-dihydro-1H-pyrazole-1-carboximidamide] | < 100 | < 100 |
| NS(=O)(=O)CCNC(=NS(=O)(=O)c1cccnc1)N1C[C@H](c2ccccc2)C(c2ccc(Cl)cc2)=N1 [Compound 65, (S)-3-(4-chlorophenyl)-4-phenyl-N′-(pyridin-3-ylsulfonyl)-N-(2-sulfamoylethyl)-4,5-dihydro-1H-pyrazole-1-carboximidamide] | < 100 | < 100 |
| NS(=O)(=O)[C@H]1CCN(/C(=N/S(=O)(=O)c2ccc(Cl)cc2)N2C[C@H](c3ccccc3)C(c3ccc(Cl)cc3)=N2)C1 (single isomer, unassigned) [Compound 135] | > 500 | > 500 |

Continued, values first:

| IC50 [1] [nM] | IC50 [2] [nM] | SMILES |
| --- | --- | --- |
| < 100 | < 100 | NS(=O)(=O)[C@H]1C[C@H](N/C(=N/S(=O)(=O)c2ccc(Cl)cc2)N2C[C@H](c3ccccc3)C(c3ccc(Cl)cc3)=N2)C1 (single isomer, unassigned) [Compound 115] |
| 100 to 500 | < 100 | C[C@@H](CN/C(=N\S(=O)(=O)c1ccc(C(F)(F)F)cc1)N1C[C@H](c2ccccc2)C(c2ccc(Cl)cc2)=N1)S(N)(=O)=O [Compound 18, (S,E)-3-(4-chlorophenyl)-4-phenyl-N-((S)-2-sulfamoylpropyl)-N′-((4-(trifluoromethyl)phenyl)sulfonyl)-4,5-dihydro-1H-pyrazole-1-carboximidamide] |
| < 100 | < 100 | C[C@@H](CN/C(=N\S(=O)(=O)c1ccc(C(F)(F)F)cc1)N1C[C@H](c2ccccc2)C(c2ccc(F)cc2)=N1)S(N)(=O)=O (single isomer, unassigned) [Compound 48] |
| > 500 | > 500 | NS(=O)(=O)CCCCN/C(=N\S(=O)(=O)c1ccc(Cl)cc1)N1C[C@H](c2ccccc2)C(c2ccc(Cl)cc2)=N1 [Compound 99, (S,E)-3-(4-chlorophenyl)-N′-((4-chlorophenyl)sulfonyl)-4-phenyl-N-(4-sulfamoylbutyl)-4,5-dihydro-1H-pyrazole-1-carboximidamide] |
| > 500 | > 500 | C[C@H](CS(N)(=O)=O)N/C(=N\S(=O)(=O)c1ccc(Cl)cc1)N1C[C@H](c2ccccc2)C(c2ccc(F)cc2)=N1 [Compound 57, (S,E)-N′-((4-chlorophenyl)sulfonyl)-3-(4-fluorophenyl)-4-phenyl-N-((R)-1-sulfamoylpropan-2-yl)-4,5-dihydro-1H-pyrazole-1-carboximidamide] |
| < 100 | < 100 | NS(=O)(=O)NCCN/C(=N\S(=O)(=O)c1ccc(Cl)cc1)N1C[C@H](c2ccccc2)C(c2ccc(Cl)cc2)=N1 [Compound 183, (S,E)-3-(4-chlorophenyl)-N′-((4-chlorophenyl)sulfonyl)-4-phenyl-N-(2-(sulfamoylamino)ethyl)-4,5-dihydro-1H-pyrazole-1-carboximidamide] |
| < 100 | 100 to 500 | CC(CN/C(=N\S(=O)(=O)c1ccc(Cl)cc1)N1C[C@H](c2ccccc2)C(c2ccc(Cl)cc2)=N1)NS(N)(=O)=O (stereo partly drawn) [Compound 185, (4S,E)-3-(4-chlorophenyl)-N′-((4-chlorophenyl)sulfonyl)-4-phenyl-N-(2-(sulfamoylamino)propyl)-4,5-dihydro-1H-pyrazole-1-carboximidamide] |
| 100 to 500 | 100 to 500 | NS(=O)(=O)[C@@H]1CC[C@@H](N/C(=N/S(=O)(=O)c2ccc(Cl)cc2)N2C[C@H](c3ccccc3)C(c3ccc(Cl)cc3)=N2)C1 (single isomer, unassigned) [Compound 141] |
| 100 to 500 | 100 to 500 | NS(=O)(=O)[C@H]1C[C@@H](N/C(=N/S(=O)(=O)c2ccc(Cl)cc2)N2C[C@H](c3ccccc3)C(c3ccc(Cl)cc3)=N2)C1 (single isomer, unassigned) [Compound 116] |
| < 100 | < 100 | NS(=O)(=O)N1CC(N/C(=N\S(=O)(=O)c2ccc(Cl)cc2)N2C[C@H](c3ccccc3)C(c3ccc(Cl)cc3)=N2)C1 [Compound 191, (S,E)-3-(4-chlorophenyl)-N′-((4-chlorophenyl)sulfonyl)-4-phenyl-N-(1-sulfamoylazetidin-3-yl)-4,5-dihydro-1H-pyrazole-1-carboximidamide] |
| < 100 | 100 to 500 | C[C@@H](CN/C(=N\S(=O)(=O)c1ccc(Cl)cc1)N1C[C@H](c2ccccc2)C(c2ccc(Cl)cc2)=N1)S(N)(=O)=O [Compound 6, (S,E)-3-(4-chlorophenyl)-N′-((4-chlorophenyl)sulfonyl)-4-phenyl-N-((S)-2-sulfamoylpropyl)-4,5-dihydro-1H-pyrazole-1-carboximidamide] |
| < 100 | < 100 | C[C@H](CN/C(=N\S(=O)(=O)c1ccc(F)cc1)N1C[C@H](c2ccccc2)C(c2ccc(Cl)cc2)=N1)S(N)(=O)=O [Compound 14, (S,E)-3-(4-chlorophenyl)-N′-((4-fluorophenyl)sulfonyl)-4-phenyl-N-((R)-2-sulfamoylpropyl)-4,5-dihydro-1H-pyrazole-1-carboximidamide] |

Source: patent US20250248973A1, “CANNABINOID RECEPTOR 1 ANTAGONISTS/INVERSE AGONISTS AND USES THEREOF” (Corbus Pharmaceuticals, Inc., priority 2022, published 2025)
